US10954193B2 (Vanderbilt University, priority 2013, dated 2021)

Target: recombinant Mcl-1 (residues 172-327) (Homo sapiens (Human), UniProt Q07820)
Assay: Bak peptide binding assay, fluorescence polarization anisotropy competition (FITC-Bak), Mcl-1;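 also: displacement of labeled Bak peptide read by fluorescence anisotropy, 10-point threefold dilutions from 20 µM top dose in 5% DMSO, 90 min incubation at room temperature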
Conditions: Table 3, binned ranges; FITC-Bak peptide 10 nM, Mcl-1 14 nM; read-out: Ki for inhibition of Mcl-1

recombinant Mcl-1 (residues 172-327), sequence (Q07820 172-327): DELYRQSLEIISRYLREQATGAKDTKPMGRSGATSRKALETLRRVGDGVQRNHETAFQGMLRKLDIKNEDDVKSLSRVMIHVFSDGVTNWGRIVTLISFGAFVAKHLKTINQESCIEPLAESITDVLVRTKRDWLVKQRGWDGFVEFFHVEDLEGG

Compound | Ki [nM]
Cc1cc(OCCCc2c(C)n(CCC(=O)O)c3c(-c4c(C)nn(Cc5ccccn5)c4C)cccc23)cc(C)c1Cl [Example 105, 3-(3-(3-(4-chloro-3,5-dimethylphenoxy)propyl)-7-(3,5-dimethyl-1-(pyridin-2-ylmethyl)-1H-pyrazol-4-yl)-2-methyl-1H-indol-1-yl)propanoic acid] | ≤ 100
Cc1cc(OCCCc2c(C)n(CCC(=O)O)c3c(-c4c(C)nn(CC5CCOC5)c4C)cccc23)cc(C)c1Cl (stereo not drawn) [Example 106, 3-(3-(3-(4-chloro-3,5-dimethylphenoxy)propyl)-7-(3,5-dimethyl-1-((tetrahydrofuran-3-yl)methyl)-1H-pyrazol-4-yl)-2-methyl-1H-indol-1-yl)propanoic acid] | ≤ 100
Cc1cc(OCCCc2c(C)n(CCC(=O)O)c3c(-c4c(C)nn(CCN(C)C)c4C)cccc23)cc(C)c1Cl [Example 109, 3-(3-(3-(4-chloro-3,5-dimethylphenoxy)propyl)-7-(1-(2-(dimethylamino)ethyl)-3,5-dimethyl-1H-pyrazol-4-yl)-2-methyl-1H-indol-1-yl)propanoic acid] | 301 to 500
Cc1cc(OCCCc2c(C)n(CCC(=O)O)c3c(-c4c(C)nn(Cc5ncccn5)c4C)cccc23)cc(C)c1Cl [Example 110, 3-(3-(3-(4-chloro-3,5-dimethylphenoxy)propyl)-7-(3,5-dimethyl-1-(pyrimidin-2-ylmethyl)-1H-pyrazol-4-yl)-2-methyl-1H-indol-1-yl)propanoic acid] | 1000 to 9990
Cc1cc(OCCCc2c(C)n(Cc3cccc(C(=O)O)c3)c3c(-c4c(C)nn(Cc5ccccn5)c4C)cccc23)cc(C)c1Cl [Example 111, 3-((3-(3-(4-chloro-3,5-dimethylphenoxy)propyl)-7-(3,5-dimethyl-1-(pyridin-2-ylmethyl)-1H-pyrazol-4-yl)-2-methyl-1H-indol-1-yl)methyl)benzoic acid] | ≤ 100
Cc1cc(OCCCc2c(C)n(Cc3cccc(C(=O)O)c3)c3c(-c4c(C)nn(Cc5cccnc5)c4C)cccc23)cc(C)c1Cl [Example 112, 3-((3-(3-(4-chloro-3,5-dimethylphenoxy)propyl)-7-(3,5-dimethyl-1-(pyridin-3-ylmethyl)-1H-pyrazol-4-yl)-2-methyl-1H-indol-1-yl)methyl)benzoic acid] | 501 to 999
Cc1cc(OCCCc2c(C)n(CCC(=O)O)c3c(-c4c(C)nn(CCN5CCOCC5)c4C)c(Cl)ccc23)cc(C)c1Cl [Example 113, 3-(6-chloro-3-(3-(4-chloro-3,5-dimethylphenoxy)propyl)-7-(3,5-dimethyl-1-(2-morpholinoethyl)-1H-pyrazol-4-yl)-2-methyl-1H-indol-1-yl)propanoic acid] | ≤ 100
Cc1cc(OCCCc2c(C)n(CC(=O)O)c3c(-c4c(C)nn(C)c4C)c(Cl)ccc23)cc(C)c1Cl [Example 114, 2-(6-chloro-3-(3-(4-chloro-3,5-dimethylphenoxy)propyl)-2-methyl-7-(1,3,5-trimethyl-1H-pyrazol-4-yl)-1H-indol-1-yl)acetic acid] | ≤ 100
Cc1cc(OCCCc2c(C(F)(F)F)n(Cc3cccc(C(=O)O)c3)c3c(Br)cccc23)cc(C)c1Cl [Example 115, 3-((7-bromo-3-(3-(4-chloro-3,5-dimethylphenoxy)propyl)-2-(trifluoromethyl)-1H-indol-1-yl)methyl)benzoic acid] | 101 to 299
Cc1cc(OCCCc2c(C(F)(F)F)n(Cc3ccc(C(=O)O)cc3)c3c(Br)cccc23)cc(C)c1Cl [Example 116, 4-((7-bromo-3-(3-(4-chloro-3,5-dimethylphenoxy)propyl)-2-(trifluoromethyl)-1H-indol-1-yl)methyl)benzoic acid] | 101 to 299
Cc1cc(OCCCc2c(C(F)(F)F)n(CCc3ccc(C(=O)O)cc3)c3c(-c4c(C)nn(C)c4C)cccc23)cc(C)c1Cl [Example 118, 4-(2-(3-(3-(4-chloro-3,5-dimethylphenoxy)propyl)-2-(trifluoromethyl)-7-(1,3,5-trimethyl-1H-pyrazol-4-yl)-1H-indol-1-yl)ethyl)benzoic acid] | ≤ 100
Cc1cc(OCCCc2c(C(F)(F)F)n(Cc3ccc(C(=O)O)cn3)c3c(Br)cccc23)cc(C)c1Cl [Example 119, 6-((7-bromo-3-(3-(4-chloro-3,5-dimethylphenoxy)propyl)-2-(trifluoromethyl)-1H-indol-1-yl)methyl)nicotinic acid] | 1000 to 9990
Cc1cc(OCCCc2c(C(F)(F)F)n(CC(=O)O)c3c(-c4c(C)nn(C)c4C)cccc23)cc(C)c1Cl [Example 120, 2-(3-(3-(4-chloro-3,5-dimethylphenoxy)propyl)-2-(trifluoromethyl)-7-(1,3,5-trimethyl-1H-pyrazol-4-yl)-1H-indol-1-yl)acetic acid] | ≤ 100
Cc1cc(OCCCc2c(C(F)(F)F)n(CC(=O)N3CCN(CC(=O)O)CC3)c3c(-c4c(C)nn(C)c4C)cccc23)cc(C)c1Cl [Example 121, 2-(4-(2-(3-(3-(4-chloro-3,5-dimethylphenoxy)propyl)-2-(trifluoromethyl)-7-(1,3,5-trimethyl-1H-pyrazol-4-yl)-1H-indol-1-yl)acetyl)piperazin-1-yl)acetic acid] | ≤ 100
Cc1cc(OCCCc2c(C(F)(F)F)n(Cc3cccc(C(=O)O)c3)c3c(-c4c(C)nn(C)c4C)c(Cl)ccc23)cc(C)c1Cl [Example 122, 3-((6-chloro-3-(3-(4-chloro-3,5-dimethylphenoxy)propyl)-2-(trifluoromethyl)-7-(1,3,5-trimethyl-1H-pyrazol-4-yl)-1H-indol-1-yl)methyl)benzoic acid] | ≤ 100
Cc1cc(OCCCc2c(C(F)(F)F)n(Cc3cccc(C(=O)O)c3)c3c(-c4c(C)nn(C)c4C)cccc23)cc(C)c1Cl [Example 123, 3-((3-(3-(4-chloro-3,5-dimethylphenoxy)propyl)-2-(trifluoromethyl)-7-(1,3,5-trimethyl-1H-pyrazol-4-yl)-1H-indol-1-yl)methyl)benzoic acid] | ≤ 100
Cc1cc(OCCCc2c(C(F)(F)F)n(Cc3ccc(C(=O)O)cc3)c3c(-c4c(C)nn(C)c4C)cccc23)cc(C)c1Cl [Example 124, 4-((3-(3-(4-chloro-3,5-dimethylphenoxy)propyl)-2-(trifluoromethyl)-7-(1,3,5-trimethyl-1H-pyrazol-4-yl)-1H-indol-1-yl)methyl)benzoic acid] | ≤ 100
Cc1cc(OCCCc2c(C)n(Cc3cccc(C(=O)NS(C)(=O)=O)c3)c3c(-c4c(C)nn(C)c4C)cccc23)cc(C)c1Cl [Example 125, 3-((3-(3-(4-chloro-3,5-dimethylphenoxy)propyl)-2-methyl-7-(1,3,5-trimethyl-1H-pyrazol-4-yl)-1H-indol-1-yl)methyl)-N-(methylsulfonyl)benzamide] | ≤ 100
Cc1cc(OCCCc2c(C)n(Cc3cccc(C(=O)NS(=O)(=O)c4ccccn4)c3)c3c(-c4c(C)nn(C)c4C)cccc23)cc(C)c1Cl [Example 126, 3-((3-(3-(4-chloro-3,5-dimethylphenoxy)propyl)-2-methyl-7-(1,3,5-trimethyl-1H-pyrazol-4-yl)-1H-indol-1-yl)methyl)-N-(pyridin-2-ylsulfonyl)benzamide] | ≤ 100
Cc1cc(OCCCc2c(C)n(Cc3cccc(C(=O)NS(=O)(=O)c4ccccc4)c3)c3c(-c4c(C)nn(C)c4C)cccc23)cc(C)c1Cl [Example 127, 3-((3-(3-(4-chloro-3,5-dimethylphenoxy)propyl)-2-methyl-7-(1,3,5-trimethyl-1H-pyrazol-4-yl)-1H-indol-1-yl)methyl)-N-(phenylsulfonyl)benzamide] | ≤ 100
Cc1cc(OCCCc2c(C)n(Cc3cccc(C(=O)NS(=O)(=O)c4ccncc4)c3)c3c(-c4c(C)nn(C)c4C)cccc23)cc(C)c1Cl [Example 128, 3-((3-(3-(4-chloro-3,5-dimethylphenoxy)propyl)-2-methyl-7-(1,3,5-trimethyl-1H-pyrazol-4-yl)-1H-indol-1-yl)methyl)-N-(pyridin-4-ylsulfonyl)benzamide] | 101 to 299
Cc1cc(OCCCc2c(C)n(Cc3cccc(C(=O)NS(=O)(=O)c4cccnc4)c3)c3c(-c4c(C)nn(C)c4C)cccc23)cc(C)c1Cl [Example 129, 3-((3-(3-(4-chloro-3,5-dimethylphenoxy)propyl)-2-methyl-7-(1,3,5-trimethyl-1H-pyrazol-4-yl)-1H-indol-1-yl)methyl)-N-(pyridin-3-ylsulfonyl)benzamide] | 101 to 299
Cc1cc(OCCCc2c(C)n(Cc3ccc(C(=O)NS(=O)(=O)c4ccccc4)cc3)c3c(-c4c(C)nn(C)c4C)cccc23)cc(C)c1Cl [Example 130, 4-((3-(3-(4-chloro-3,5-dimethylphenoxy)propyl)-2-methyl-7-(1,3,5-trimethyl-1H-pyrazol-4-yl)-1H-indol-1-yl)methyl)-N-(phenylsulfonyl)benzamide] | ≤ 100
Cc1cc(OCCCc2c(C)n(Cc3ccc(C(=O)NS(C)(=O)=O)cc3)c3c(-c4c(C)nn(C)c4C)cccc23)cc(C)c1Cl [Example 131, 4-((3-(3-(4-chloro-3,5-dimethylphenoxy)propyl)-2-methyl-7-(1,3,5-trimethyl-1H-pyrazol-4-yl)-1H-indol-1-yl)methyl)-N-(methylsulfonyl)benzamide] | ≤ 100
Cc1cc(OCCCc2c(C)n(Cc3ccc(C(=O)NS(=O)(=O)c4ccccn4)cc3)c3c(-c4c(C)nn(C)c4C)cccc23)cc(C)c1Cl [Example 132, 4-((3-(3-(4-chloro-3,5-dimethylphenoxy)propyl)-2-methyl-7-(1,3,5-trimethyl-1H-pyrazol-4-yl)-1H-indol-1-yl)methyl)-N-(pyridin-2-ylsulfonyl)benzamide] | ≤ 100
Cc1cc(OCCCc2c(C)n(CCC(=O)O)c3c(-c4c(C)nn(Cc5cccnc5)c4C)cccc23)cc(C)c1Cl [Example 133, 3-(3-(3-(4-chloro-3,5-dimethylphenoxy)propyl)-7-(3,5-dimethyl-1-(pyridin-3-ylmethyl)-1H-pyrazol-4-yl)-2-methyl-1H-indol-1-yl)propanoic acid] | ≤ 100
Cc1cc(OCCCc2c(C)n(Cc3ccc(C(=O)O)cn3)c3c(-c4c(C)nn(C)c4C)c(Cl)ccc23)cc(C)c1Cl [Example 134, 6-((6-chloro-3-(3-(4-chloro-3,5-dimethylphenoxy)propyl)-2-methyl-7-(1,3,5-trimethyl-1H-pyrazol-4-yl)-1H-indol-1-yl)methyl)nicotinic acid] | ≤ 100
